The test system of this assay is Microfilaria of Dirofilaria immitis. The experiment in a line: Method A: screening of compounds against microfilaria of Dirofilaria immitis (microtitre plate, survival at 72 hours). Format: cell-based. Conditions: read-out: mean EC50 values.

Where only a bound is given, the exact number is not on record here.

As usually defined, the EC50 is the concentration that produces a half-maximal response.

Regarding `C[C@H]1OC(=O)[C@H](CC(C)(C)C)N(C)C(=O)[C@@H](Cc2ccc(SC(F)(F)F)cc2)OC(=O)[C@H](CC(C)(C)F)N(C)C(=O)[C@@H](C)OC(=O)[C@H](CC(C)(C)C)N(C)C(=O)[C@@H](Cc2ccc(SC(F)(F)F)cc2)OC(=O)[C@H](CC(C)(C)F)N(C)C1=O` [44-46/1-4, (3S,6R,9S,12R,15S,18R,21S,24R)-3,15-bis(2-fluoro-2-methylpropyl)-4,6,10,16,18,22-hexamethyl-9,21-dineopentyl-12,24-bis(4-(trifluoromethylthio)benzyl)-1,7,13,19-tetraoxa-4,10,16,22-tetraazacyclotetracosan-2,5,8,11,14,17,20,23-octaone], the EC50 was less than 1000 nM.

The values above are taken from US11382949B2, “Anthelmintic depsipeptide compounds” (BOEHRINGER INGELHEIM ANIMAL HEALTH USA INC., priority 2016, dated 2022).
